Results as given in paper PMC2867455 (Journal of medicinal chemistry, 2010).
Blank lines part the entries; values can stand above or below the compound they belong to.

Experiments:
PFTase [1] = molecular target: T1, PFTase (Saccharomyces cerevisiae, UniProt P22007+P29703); assay: PFTase in vitro continuous-fluorescence assay; type: biochemical
T1 sequence (P22007 1-431): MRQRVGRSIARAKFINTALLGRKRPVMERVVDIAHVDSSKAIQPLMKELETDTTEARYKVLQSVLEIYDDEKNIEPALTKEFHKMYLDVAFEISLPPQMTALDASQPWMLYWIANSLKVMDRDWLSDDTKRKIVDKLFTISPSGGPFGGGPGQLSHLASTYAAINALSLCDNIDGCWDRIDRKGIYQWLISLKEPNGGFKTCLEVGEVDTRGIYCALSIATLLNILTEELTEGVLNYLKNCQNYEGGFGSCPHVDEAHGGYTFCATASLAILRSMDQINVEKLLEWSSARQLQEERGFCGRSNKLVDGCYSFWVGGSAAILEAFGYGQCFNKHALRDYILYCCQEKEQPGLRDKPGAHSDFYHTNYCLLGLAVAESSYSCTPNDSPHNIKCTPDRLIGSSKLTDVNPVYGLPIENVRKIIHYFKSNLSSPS
T1 sequence (P29703 1-316): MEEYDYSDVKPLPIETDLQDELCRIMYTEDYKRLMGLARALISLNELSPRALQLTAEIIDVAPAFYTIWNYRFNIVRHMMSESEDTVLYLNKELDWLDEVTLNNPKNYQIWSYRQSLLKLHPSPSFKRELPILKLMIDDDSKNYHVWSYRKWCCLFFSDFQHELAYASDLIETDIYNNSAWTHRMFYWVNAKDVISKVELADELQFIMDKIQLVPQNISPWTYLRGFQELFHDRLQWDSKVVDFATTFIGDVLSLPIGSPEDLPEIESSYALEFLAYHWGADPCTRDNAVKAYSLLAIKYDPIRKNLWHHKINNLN

GFP-H-Ras = assay: Cell based analysis of GFP-H-Ras processing in MDCK cells
PFTase [2] = conditions: read-out: IC50 for PFTase; cited from earlier work
[3] = system: mouse models of leukemia and melanoma; conditions: intra-peritoneal delivery; cited from earlier work
[4] = at concentrations as high as 100 µM, 0.04% Triton X-100

PFTase inhibition (in words) (PFTase [1]; [4]): little to no inhibition
Compound: CC(=O)N1CCN(c2ccc(OCC3COC(Cn4ccnc4)(c4ccc(Cl)cc4Cl)O3)cc2)CC1 (stereo not shown) [Ketoconazole]

PFTase inhibition (in words) (PFTase [1]; [4]): little to no inhibition
Compound: OC(Cn1cncn1)(Cn1cncn1)c1ccc(F)cc1F [Fluconazole]

PFTase inhibition (in words) (PFTase [1]; [4]): little to no inhibition
Compound: Clc1ccccc1C(c1ccccc1)(c1ccccc1)n1ccnc1 [Clotrimazole]

Compound: Tetraiodophenolphthalein [TPIT]
PFTase inhibition (in words) (PFTase [1]; continuous fluorescence assay): not an inhibitor of PFTase

Compound: CCOC(=O)N1CCC(=C2c3ccc(Cl)cc3CCc3cccnc32)CC1 [Loratadine]
inhibition of GFP-H-Ras processing (GFP-H-Ras; 25 µM, 24 h): appreciable inhibition of GFP-H-Ras processing
inhibition of prenylation (GFP-H-Ras) (GFP-H-Ras; concentrations lower than 25 µM, 24 h): did not manifest observable inhibition of prenylation

Compound: CC(=O)OCC(=O)[C@@]1(O)CC[C@H]2[C@@H]3CCC4=CC(=O)CC[C@]4(C)[C@H]3C(=O)C[C@@]21C [Cortisone acetate]
IC50 (PFTase [2]): 14 µM

Compound: Clc1ccc(COC(Cn2ccnc2)c2ccc(Cl)cc2Cl)c(Cl)c1 (stereo not shown) [Miconazole]
toxicity to cells (MDCK cells): toxicity and cell death
survival in mouse models of leukemia and melanoma [3]: promote survival
inhibition of GFP-H-Ras processing (GFP-H-Ras; 10 µM, 48 h, cells remaining alive): significant inhibition of GFP-H-Ras processing
